Experimental data taken from patent US5817669A, “Compounds, processes for the preparation thereof and anti-tumor agents” (Dainippon Pharmaceutical Co., Ltd., priority 1994, dated 1998).
≈ marks a conversion by molar mass, not a printed value. Like-named read-outs stand apart in the source and are kept apart here.

Experiments:
[1] = test system: murine P388 lymphocytic leukemia cells; experiment: In vitro anti-tumor activity against murine P388 lymphocytic leukemia cells (MTT, 72 h); type: cell-based; details: Mus musculus; murine P388 cells, 72 h, MTT; read-out: IC50 (50% proliferation inhibitory concentration)
Description: Test compounds were tested for anti-tumor activity according to MTT [3-(4,5-dimethylthiazol-2-yl)-2,5-diphenyltetrazolium bromide] method, using murine P388 lymphocytic leukemia cells. […] The culture medium was centrifuged (4° C., 2,000 rpm for 20 minutes), and thus, the supernatants were removed by suction. Then, 0.1 ml of dimethyl sulfoxide was put in each well to dissolve the formed formazan, and, subsequently, another 0.1 ml of dimethyl sulfoxide was added. The absorbance (OD) of each of the obtained solutions was measured by use of Multiskan Bichromatic (main wavelength 570 nm, sub-wavelength 690 nm). […] IC50 :μg/ml) were calculated by the least squares method.

[2] = test system: KB human nasopharynx cancer; experiment: In vitro anti-tumor activity against KB human nasopharynx cancer (MTT); type: cell-based; details: KB, 72 h, MTT, read-out: IC50
Description: (§1) A culture medium containing 500 to 2,000 human cancer cells was put in an amount of 0.1 ml in each well of 96-well plate, and the cells were cultured for 20 hours under a condition of 37° C. and 5% carbon dioxide gas in air. After the culturing, a solution of test compounds of predetermined concentration was added, and then, the cells were cultured for further 72 hours. After the culturing, an MTT (5 mg/ml) solution was added in an amount of 0.01 ml in the respective wells, and the cells were cultured for further 4 hours. The supernatants of the culture medium were removed by suction, and then, 0.1 ml of dimethyl sulfoxide was put in respective well to dissolve the formed formazan, and, moreover, 0.1 ml of dimethyl sulfoxide was added.

HMV2 human melanoma = experiment: In vitro anti-tumor activity against HMV-2 human melanoma (MTT); type: cell-based; details: HMV-2, 72 h, MTT, read-out: IC50
Description: as §1

[3] = test system: AZ521 human stomach cancer; experiment: In vitro anti-tumor activity against AZ-521 human stomach cancer (MTT); type: cell-based; details: AZ-521, 72 h, MTT, read-out: IC50
Description: as §1

[4] = test system: MKN45 human stomach cancer; experiment: In vitro anti-tumor activity against MKN45 human stomach cancer (MTT); type: cell-based; details: MKN-45, MKN45, 72 h, MTT, read-out: IC50
Description: as §1

[5] = test system: WiDr human colorectal cancer; experiment: In vitro anti-tumor activity against WiDr human colorectal cancer (MTT); type: cell-based; details: 72 h, MTT, read-out: IC50
Description: as §1

C33A human cervix cancer = experiment: In vitro anti-tumor activity against C-33A human cervix cancer (MTT); type: cell-based; details: C-33A, 72 h, MTT, read-out: IC50
Description: as §1

A427 human lung cancer = experiment: In vitro anti-tumor activity against A-427 human lung cancer (MTT); type: cell-based; details: A-427, 72 h, MTT, read-out: IC50
Description: as §1

[6] = test system: murine P388 lymphocytic leukemia cells; experiment: Increases in life span of mice implanted with murine P388 lymphocytic leukemia cells; type: in vivo, SLC: BDF1 mice; details: Mus musculus, P388, ip, 720 h, ip
Description: 1×10^6 murine P388 lymphocytic leukemia cells were intraperitoneally implanted in each of SLC: BDF1 mice (8 to 10 weeks old, female, 7 animals per one group). A test compound (drug) was either dissolved in 0.1 N--NaOH or suspended in 0.4% carboxymethylcellulose solution, and the resultant solution or suspension was diluted with distilled water or 0.4% carboxymethylcellulose solution so as to give predetermined concentrations for administration. The obtained solution was intraperitoneally (ip) administered twice, namely on the day following the implantation (1st day) and the 5th day, each 0.2 ml. The life and death of the mice were observed over a period of 30 days, and the median survival time (hereinafter referred to as MST) was determined for each group, and, thus, the increase in life span (ILS; %) was calculated according to the following equation:
ILS (%)=[{(MST of the test group)/(MST of the control group)}-1]×100
Drug effect was judged in the following manner, according to the criterion of U.S. National Cancer Institute (NCI):
ILS=75% or higher: ++ (remarkably effective);
20 to 74%: + (effective);
19% or lower: - (ineffective)

[7] = test system: colon 26 murine tumor cells; experiment: Tumor growth inhibition effect on colon 26 murine tumor cells implanted mice; type: in vivo, SLC: CDF1 mice; details: Mus musculus, Colon 26, 504 h, ip, days 1-9, day 21 or 22, read-out: Tumor growth inhibition rate IR (%)
Description: A 2% brei of colon 26 murine tumor cells was intracutaneously implanted each 0.1 ml in the abdominal part of SLC: CDF1 female mice (7 to 9 weeks old, 7 animals per one group). […] The obtained solutions were intraperitoneally (ip) administered each 0.2 ml once a day, from the day (1st day) following the implantation to the 9th day. On the 21st or 22nd day after the implantation, tumor weight was estimated from tumor diameters, and thus, the tumor growth inhibition rate (IR %) of the drug administered group in comparison with the control group was calculated according to the following equation. IR (%)=[1-{(MTW in the treated group)/(MTW in the control group)}]×10 0 MTW: mean tumor weight

Acute toxicity = details: mouse, in vivo, mice, 14th day
Description: Solutions of test compounds in predetermined concentrations were administered (0.1 ml/10 g body weight) to female BALB/c CrSlc mice (5 to 10 animals per one group, 10 weeks old) respectively, and, thus, LD50 values were calculated from the mortalities of the mice on the 14th day after the administration.

[8] = NCI criterion, read-out: Evaluation
[9] = days 1 and 5, in solution, read-out: ILS (%) (in solution)
[10] = days 1 and 5, in suspension, read-out: ILS (%) (in suspension)

Row | SMILES | IC50 [1] | IC50 [2] | IC50 (HMV2 human melanoma) | IC50 [3] | IC50 [4] | IC50 [5] | IC50 (C33A human cervix cancer) | IC50 (A427 human lung cancer) | ILS at 3.13 mg/kg [6, 8] | ILS at 6.25 mg/kg [6, 8] | ILS at 12.5 mg/kg [6, 8] | ILS at 25 mg/kg [6, 8] | ILS at 3.13 mg/kg [6, 9] | ILS at 3.13 mg/kg [6, 10] | ILS at 6.25 mg/kg [6, 9] | ILS at 12.5 mg/kg [6, 9] | ILS at 12.5 mg/kg [6, 10] | ILS at 25 mg/kg [6, 9] | further results
1 | C[C@H](N)C(=O)NC1CCN(c2ccc3c(=O)c(C(=O)O)cn(-c4nccs4)c3n2)C1.Cl (stereo partly drawn) [Compound 3-1, 7-(3-L-alanylamino-1-pyrrolidinyl)-1,4-dihydro-4-oxo-1-(2-thiazolyl)-1,8-naphthyridine-3-carboxylic acid hydrochloride] | – | – | – | – | – | – | – | – | – | – | – | – | – | – | – | – | – | – | solubility relative to that of Compound 1-1 and 3 (Solubility; relative to Compound 1-1 and 3 (Z is hydrogen)): ≥ 10 times; solubility (Solubility; water): 79.4 mg/mL
2 | CNC1(C)CCN(c2ccc3c(=O)c(C(=O)O)cn(-c4nccs4)c3n2)C1 (stereo not drawn) [Compound 4] | 0.0175 µg/mL (≈ 0.0454 µM) | 0.172 µg/mL (≈ 0.446 µM) | 0.187 µg/mL (≈ 0.485 µM) | 0.1 µg/mL (≈ 0.259 µM) | 0.199 µg/mL (≈ 0.516 µM) | 0.392 µg/mL (≈ 1.02 µM) | 0.144 µg/mL (≈ 0.374 µM) | 0.194 µg/mL (≈ 0.503 µM) | 20 to 74% | > 75% | > 75% | > 75% | 63% | 63% | 88% | 125% | 125% | 150% | inhibition in vivo at 1.56 mg/kg ([7]; 1.56 mg/kg once a day): 64%; inhibition in vivo at 3.13 mg/kg ([7]; 3.13 mg/kg once a day): 89%; LD50 at 336 h (Acute toxicity; Intravenous administration (iv)): > 100 mg/kg
3 | CO[C@@H]1CN(c2ccc3c(=O)c(C(=O)O)cn(-c4nccs4)c3n2)C[C@H]1N (relative stereo) [Compound 2] | 0.0178 µg/mL (≈ 0.0459 µM) | 0.309 µg/mL (≈ 0.798 µM) | 0.382 µg/mL (≈ 0.986 µM) | 0.331 µg/mL (≈ 0.854 µM) | 0.579 µg/mL (≈ 1.49 µM) | 1.88 µg/mL (≈ 4.85 µM) | 0.314 µg/mL (≈ 0.81 µM) | 0.169 µg/mL (≈ 0.436 µM) | > 75% | > 75% | > 75% | > 75% | 88% | 63% | 100% | 125% | 138% | 213% | ILS at 1.56 mg/kg [6, 8]: 20 to 74%; ILS at 50 mg/kg [6, 8]: > 75%; ILS at 1.56 mg/kg [6, 9]: 50%; ILS at 50 mg/kg [6, 9]: > 275%; ILS at 50 mg/kg [6, 10]: 238%; inhibition in vivo at 12.5 mg/kg ([7]; 12.5 mg/kg once a day): 79%; LD50 at 336 h (Acute toxicity; Intraperitoneal administration (ip)): 135 mg/kg
